{
  "source": "patent US12208088B2",
  "about": "(Genentech, Inc., priority 2018, dated 2025)",
  "target": "HPK1 (Homo sapiens (Human), UniProt Q92918)",
  "sequence (Q92918 1-346 limits assumed)": "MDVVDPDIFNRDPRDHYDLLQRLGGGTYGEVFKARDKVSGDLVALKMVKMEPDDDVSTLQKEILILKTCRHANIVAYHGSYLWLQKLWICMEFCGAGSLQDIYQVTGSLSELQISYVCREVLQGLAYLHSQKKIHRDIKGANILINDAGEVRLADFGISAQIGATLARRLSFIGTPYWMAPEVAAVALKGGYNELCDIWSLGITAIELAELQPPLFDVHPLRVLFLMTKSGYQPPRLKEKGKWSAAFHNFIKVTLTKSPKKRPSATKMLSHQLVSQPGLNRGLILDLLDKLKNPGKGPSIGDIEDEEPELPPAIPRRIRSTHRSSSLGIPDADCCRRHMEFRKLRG",
  "assay": "HPK1 Lantha binding assay (\"Lanth\")",
  "details": "binding assays; Morrison Ki fit",
  "protocol": "Example B2: HPK1 Lantha Binding Assay (“Lanth”)\nProcedure: I. Compound Dilution:\nThe compounds to be tested were diluted by preparing 12.5 uL/well of 5 mM compound (100×) in columns 2 and 13 and 10 ul/well of DMSO in columns 3-12, 14-23, and wells A1-H1 and I24-P24 of the compound plate using a Bravo liquid handling platform. For the reference compound, the top concentration was 1 mM. To the plate was added 10 ul 2 mM staurosporine in wells J1-P1 and A24-H24. A 11 point 5-fold compound serial dilution was performed using the Bravo liquid handling platform. From the plate were transferred 2.5 ul of the solutions from column 2 and column 13 to the 10 ul of DMSO in columns 3 and 14 & so on. The compound plate was centrifuged at 2500 rpm for 1 min. From the compound plate was transferred 80 nl of the compounds into an assay plate using the Echo liquid handler system. One compound plate makes two assay plates. Each assay plate is sealed and stored in an N2 cabinet.\nThe following assay concentrations and times were used: 2 nM HPK1, 2 nM Eu-Anti-GST Ab, and 15 nM Tracer222, with 60 min incubation time.\nIII. HPK Lantha Binding Assay:\nFor the binding assay, 4 ul 2×HPK1 and Eu-anti-GST antibody were added to each well of the assay plate using a Multidrop reagent dispenser. The solutions were incubated in a 23 C incubator for 1 h. To each well of the assay plate was added 4 ul 2× Tracer-222 using a Multidrop reagent dispenser. The solutions were again incubated in a 23 C incubator for 1 h. The results of the assay were read using an Envision plate reader with the following parameters: TR_FRET, 340 ex/615 and 665em; 100 usec Delay; and 200 usec integration.\nCompound Ki was analyzed using Morrison ki fit model in XL-fit • a. fit=(1−((((E+x)+(Ki*(1+(S/Kd))))−(((((E+x)+(Ki*(1+(S/Kd))))^2)−((4*E)*x))^0.5))/(2*E))) • res=(y−fit) • b. Parameters: • E=enzyme concentration • S=Tracer222 concentration, Kd=Tracer222 Kd • All measurements reported using the same units (uM)\nExemplary compounds were tested in the binding assays.",
  "data": [
    {"compound": "1-(3-(1′,2′-Dihydrospiro[cyclopropane-1,3′-pyrrolo[2,3-b]pyridin]-5′-yl)phenyl)piperazin-2-one [Compound 41]", "values": [
      {"measurement": "Ki", "result": 103, "unit": "nM"}
    ]},
    {"compound": "O=C1NCCC1c1nc2ccc(-c3cnc4c(c3Cl)C3(CC3)CN4)cc2[nH]1", "note": "(racemic) [Compound 283, (±)-3-(6-(4′-Chloro-1′,2′-dihydrospiro[cyclopropane-1,3′-pyrrolo[2,3-b]pyridin]-5′-yl)-1H-benzo[d]imidazol-2-yl)pyrrolidin-2-one]", "values": [
      {"measurement": "Ki", "result": 74.2, "unit": "nM"}
    ]},
    {"compound": "CO[C@@H]1CC[C@@]2(CNc3ncc(-c4ccc(N)c(C(=O)N(C)C)c4F)c(Cl)c32)C1", "note": "(relative stereo) [Compound 81a, 6-Amino-3-((1R,3R)-4′-chloro-3-methoxy-1′,2′-dihydrospiro[cyclopentane-1,3′-pyrrolo[2,3-b]pyridin]-5′-yl)-2-fluoro-N,N-dimethylbenzamide]", "values": [
      {"measurement": "Ki", "result": 39.6, "unit": "nM"}
    ]},
    {"compound": "CO[C@H]1CC[C@@]2(CNc3ncc(-c4ccc(N)c(C(=O)N(C)C)c4F)c(Cl)c32)C1", "note": "(relative stereo) [Compound 81c, 6-Amino-3-((1R,3S)-4′-chloro-3-methoxy-1′,2′-dihydrospiro[cyclopentane-1,3′-pyrrolo[2,3-b]pyridin]-5′-yl)-2-fluoro-N,N-dimethylbenzamide]", "values": [
      {"measurement": "Ki", "result": 17.7, "unit": "nM"}
    ]},
    {"compound": "CN(C)C(=O)c1c(N)ccc(-c2cnc3c(c2Cl)[C@]2(CC[C@](C)(O)C2)CN3)c1F", "note": "(relative stereo) [Compound 82a, 6-Amino-3-((1R,3S)-4′-chloro-3-hydroxy-3-methyl-1′,2′-dihydrospiro[cyclopentane-1,3′-pyrrolo[2,3-b]pyridin]-5′-yl)-2-fluoro-N,N-dimethylbenzamide]", "values": [
      {"measurement": "Ki", "result": 8.12, "unit": "nM"}
    ]},
    {"compound": "CN(C)C(=O)c1c(N)ccc(-c2cnc3c(c2Cl)[C@]2(CC[C@@H](C(N)=O)C2)CN3)c1F", "note": "(relative stereo) [Compound 84a, (1R,3R)-5′-(4-amino-3-(dimethylcarbamoyl)-2-fluorophenyl)-4′-chloro-1′,2′-dihydrospiro[cyclopentane-1,3′-pyrrolo[2,3-b]pyridine]-3-carboxamide]", "values": [
      {"measurement": "Ki", "result": 25.9, "unit": "nM"}
    ]},
    {"compound": "CN(C)C(=O)c1c(N)ccc(-c2cnc3c(c2Cl)[C@]2(CC[C@H](C(N)=O)C2)CN3)c1F", "note": "(relative stereo) [Compound 84c, (1R,3S)-5′-(4-amino-3-(dimethylcarbamoyl)-2-fluorophenyl)-4′-chloro-1′,2′-dihydrospiro[cyclopentane-1,3′-pyrrolo[2,3-b]pyridine]-3-carboxamide]", "values": [
      {"measurement": "Ki", "result": 2.07, "unit": "nM"}
    ]},
    {"compound": "C[C@H]1C[C@@]12CNc1ncc(-c3ccc(N)c(C(=O)N(C)C)c3F)cc12", "note": "(relative stereo) [Compound 86a, 6-Amino-2-fluoro-N,N-dimethyl-3-((1R,2S)-2-methyl-1′,2′-dihydrospiro[cyclopropane-1,3′-pyrrolo[2,3-b]pyridin]-5′-yl)benzamide]", "values": [
      {"measurement": "Ki", "result": 7.9, "unit": "nM"}
    ]},
    {"compound": "CN(C)C(=O)c1c(N)ccc(-c2cnc3c(c2Cl)[C@]2(CC[C@H](n4nccn4)C2)CN3)c1F", "note": "(relative stereo) [Compound 89a, 6-Amino-3-((1R,3S)-4′-chloro-3-(2H-1,2,3-triazol-2-yl)-1′,2′-dihydrospiro[cyclopentane-1,3′-pyrrolo[2,3-b]pyridin]-5′-yl)-2-fluoro-N,N-dimethylbenzamide]", "values": [
      {"measurement": "Ki", "result": 6, "unit": "nM"}
    ]},
    {"compound": "CN(C)C(=O)c1c(N)ccc(-c2cnc3c(c2Cl)[C@]2(CC[C@H](C#N)C2)CN3)c1F", "note": "(relative stereo) [Compound 91a, 6-Amino-3-((1R,3S)-4′-chloro-3-cyano-1′,2′-dihydrospiro[cyclopentane-1,3′-pyrrolo[2,3-b]pyridin]-5′-yl)-2-fluoro-N,N-dimethylbenzamide]", "values": [
      {"measurement": "Ki", "result": 5.53, "unit": "nM"}
    ]},
    {"compound": "CNC(=O)[C@H]1CC[C@@]2(CNc3ncc(-c4ccc(N)c(C(=O)N(C)C)c4F)c(Cl)c32)C1", "note": "(relative stereo) [Compound 98a, (1R,3S)-5′-(4-Amino-3-(dimethylcarbamoyl)-2-fluorophenyl)-4′-chloro-N-methyl-1′,2′-dihydrospiro[cyclopentane-1,3′-pyrrolo[2,3-b]pyridine]-3-carboxamide]", "values": [
      {"measurement": "Ki", "result": 75.6, "unit": "nM"}
    ]},
    {"compound": "CN(C)C(=O)c1c(N)ccc(-c2cnc3c(c2Cl)[C@]2(CC[C@H](C(=O)NCCO)C2)CN3)c1F", "note": "(relative stereo) [Compound 106a, (1R,3S)-5′-(4-Amino-3-(dimethylcarbamoyl)-2-fluorophenyl)-4′-chloro-N-(2-hydroxyethyl)-1′,2′-dihydrospiro[cyclopentane-1,3′-pyrrolo[2,3-b]pyridine]-3-carboxamide]", "values": [
      {"measurement": "Ki", "result": 23.6, "unit": "nM"}
    ]},
    {"compound": "Cc1noc([C@H]2CC[C@@]3(CNc4ncc(-c5ccc(N)c(C(=O)N(C)C)c5F)c(Cl)c43)C2)n1", "note": "(relative stereo) [Compound 108a, 6-Amino-3-((1R,3S)-4′-chloro-3-(3-methyl-1,2,4-oxadiazol-5-yl)-1′,2′-dihydrospiro[cyclopentane-1,3′-pyrrolo[2,3-b]pyridin]-5′-yl)-2-fluoro-N,N-dimethylbenzamide]", "values": [
      {"measurement": "Ki", "result": 8.27, "unit": "nM"}
    ]},
    {"compound": "CN(C)C(=O)c1c(N)ccc(-c2cnc3c(c2Cl)[C@]2(CC[C@@](O)(CC#N)C2)CN3)c1F", "note": "(relative stereo) [Compound 109c, 6-Amino-3-((1R,3S)-4′-chloro-3-(cyanomethyl)-3-hydroxy-1′,2′-dihydrospiro[cyclopentane-1,3′-pyrrolo[2,3-b]pyridin]-5′-yl)-2-fluoro-N,N-dimethylbenzamide]", "values": [
      {"measurement": "Ki", "result": 32.5, "unit": "nM"}
    ]},
    {"compound": "Cc1cnn([C@H]2CC[C@@]3(CNc4ncc(-c5ccc(N)c(C(=O)N(C)C)c5F)c(Cl)c43)C2)n1", "note": "(relative stereo) [Compound 114a, 6-Amino-3-((1R,3S)-4′-chloro-3-(4-methyl-2H-1,2,3-triazol-2-yl)-1′,2′-dihydrospiro[cyclopentane-1,3′-pyrrolo[2,3-b]pyridin]-5′-yl)-2-fluoro-N,N-dimethylbenzamide]", "values": [
      {"measurement": "Ki", "result": 2.84, "unit": "nM"}
    ]},
    {"compound": "CN(C)C(=O)c1c(N)ccc(-c2cnc3c(c2Cl)[C@]2(CC[C@H](N4CCNC4=O)C2)CN3)c1F", "note": "(relative stereo) [Compound 115a, 6-Amino-3-((1R,3S)-4′-chloro-3-(2-oxoimidazolidin-1-yl)-1′,2′-dihydrospiro[cyclopentane-1,3′-pyrrolo[2,3-b]pyridin]-5′-yl)-2-fluoro-N,N-dimethylbenzamide]", "values": [
      {"measurement": "Ki", "result": 23, "unit": "nM"}
    ]},
    {"compound": "CN(C)C(=O)c1c(N)ccc(-c2cnc3c(c2Cl)[C@]2(CC[C@@](O)(Cn4cncn4)C2)CN3)c1F", "note": "(relative stereo) [Compound 116a]", "values": [
      {"measurement": "Ki", "result": 153, "unit": "nM"}
    ]},
    {"compound": "CN(C)C(=O)c1c(N)ccc(-c2cnc3c(c2Cl)[C@]2(CC[C@@](O)(Cn4ccnc4)C2)CN3)c1F", "note": "(relative stereo) [Compound 117a, 3-((1R,3S)-3-((1H-Imidazol-1-yl)methyl)-4′-chloro-3-hydroxy-1′,2′-dihydrospiro[cyclopentane-1,3′-pyrrolo[2,3-b]pyridin]-5′-yl)-6-amino-2-fluoro-N, N-dimethylbenzamide]", "values": [
      {"measurement": "Ki", "result": 247, "unit": "nM"}
    ]},
    {"compound": "CN(C)C(=O)c1c(N)ccc(-c2cnc3c(c2Cl)[C@]2(CC[C@H](n4cnc(N)n4)C2)CN3)c1F", "note": "(relative stereo) [Compound 119a, 6-Amino-3-((1R,3S)-3-(3-amino-1H-1,2,4-triazol-1-yl)-4′-chloro-1′,2′-dihydrospiro[cyclopentane-1,3′-pyrrolo[2,3-b]pyridin]-5′-yl)-2-fluoro-N,N-dimethylbenzamide]", "values": [
      {"measurement": "Ki", "result": 76.8, "unit": "nM"}
    ]},
    {"compound": "CN(C)C(=O)c1c(N)ccc(-c2cnc3c(c2Cl)[C@]2(CC[C@H](N4CCOCC4)C2)CN3)c1F", "note": "(relative stereo) [Compound 120a, 6-Amino-3-((1R,3S)-4′-chloro-3-morpholino-1′,2′-dihydrospiro[cyclopentane-1,3′-pyrrolo[2,3-b]pyridin]-5′-yl)-2-fluoro-N,N-dimethylbenzamide]", "values": [
      {"measurement": "Ki", "result": 479, "unit": "nM"}
    ]},
    {"compound": "CN(C)C(=O)c1c(N)ccc(-c2cnc3c(c2Cl)[C@]2(CC[C@H](N4CCCC4)C2)CN3)c1F", "note": "(relative stereo) [Compound 121a, 6-Amino-3-((1R,3S)-4′-chloro-3-(pyrrolidin-1-yl)-1′,2′-dihydrospiro[cyclopentane-1,3′-pyrrolo[2,3-b]pyridin]-5′-yl)-2-fluoro-N,N-dimethylbenzamide]", "values": [
      {"measurement": "Ki", "result": 381, "unit": "nM"}
    ]},
    {"compound": "CN(C)C(=O)c1c(N)ccc(-c2cnc3c(c2Cl)[C@]2(CC[C@H](N4CCOC4=O)C2)CN3)c1F", "note": "(relative stereo) [Compound 124a, 6-Amino-3-((1R,3S)-4′-chloro-3-(2-oxooxazolidin-3-yl)-1′,2′-dihydrospiro[cyclopentane-1,3′-pyrrolo[2,3-b]pyridin]-5′-yl)-2-fluoro-N,N-dimethylbenzamide]", "values": [
      {"measurement": "Ki", "result": 35, "unit": "nM"}
    ]},
    {"compound": "Cc1cnn([C@H]2CC[C@@]3(CNc4ncc(-c5ccc(N)c(C(=O)N(C)C)c5F)c(Cl)c43)C2)c1", "note": "(relative stereo) [Compound 125a, 6-Amino-3-((1R,3S)-4′-chloro-3-(4-methyl-1H-pyrazol-1-yl)-1′,2′-dihydrospiro[cyclopentane-1,3′-pyrrolo[2,3-b]pyridin]-5′-yl)-2-fluoro-N,N-dimethylbenzamide]", "values": [
      {"measurement": "Ki", "result": 3.56, "unit": "nM"}
    ]}
  ]
}
